Experimental data taken from patent US20150335596A1, “1-(2-FLUOROBIPHENYL-4-YL)-CYCLOPROPANECARBOXYLIC ACID DERIVATIVES FOR THE TREATMENT OF DOWN'S SYNDROME” (CHIESI FARMACEUTICI S.P.A., priority 2014, published 2015).

Key:
Type in all cases: in vivo, mouse
Aβ40 and Aβ42 [1] = experiment: Brain (cerebral cortex) Aβ40 and Aβ42 by ELISA; settings: after 15 months of treatment (19 months of age)
Description: (§1) The study was performed on Ts65Dn male, using the administration of CHF 5074 in the diet (375 ppm, equivalent to approximately 60 mg/kg/day).
(§2) The treatment started at 2 to 3 months of age and it was chronically administered in the diet for 15 months, until 19 months of age.
(§3) Treatment groups were: • Wild-type mice receiving standard diet (N=20) • Wild-type mice receiving CHF 5074-medicated diet (375 ppm, approximately 60 mg/kg/day) (N=20) • Ts65Dn mice receiving standard diet (N=20) • Ts65Dn mice receiving CHF 5074-mediacted diet (375 ppm, approximately 60 mg/kg/day) (N=20)
(§4) Aβ40 and Aβ42 were measured by ELISA in plasma and brain extracts (IBL kit for mouse Aβ40/Aβ42);
FIGS. 7 A, B, C, and D illustrates the brain (cerebral cortex) levels of Aβ40 and Aβ42 in animals after 15 months of treatment (19 months of age). Results are expressed as pmol/gr proteins (panels A and B), and as fmol/g wet tissue (panels C and D). There was a substantial increase in Aβ40 and Aβ42 brain levels in Ts65Dn mice compared to wild-type animals.

Synaptophysin = Synaptophysin immunostaining in hippocampus; settings: CA1/2 hippocampus, after 15 months of treatment, between experimental groups
Description: as §1, §2, §3
(§5) Brain morphology was assessed by immunohistochemistry, immunofluorescence and quantitative morphometry and microdensitometry according to Imbimbo B P et al., J Alzheimer Dis 2010; 20:159-173; Sivilia S et al., BMC Neurosci 2013; 14: 44; and Guidi S et al., Brain 2014; 137: 380-401, all of which are incorporated herein by reference in their entireties. The following proteins were investigated:
Synaptophysin. It is a pre-synaptic vesicle membrane protein known to mediate vesicle release in hippocampus;
(§6) FIG. 10 illustrates main markers of synaptic transmission in the CA1/2 regions of the hippocampus after 15 months of treatment (19 months of age). […] Panel B reports the variation of immunostaining for the glutamate transporter VGLUT1 with a substantial decrease in Ts65Dn mice compared to wild-type animals. […]

[2] = test system: Glial fibrillary acidic protein (GFAP); experiment: Reactive astrocytes, GFAP immunoreactivity in hippocampus; settings: CA1/2 hippocampus, aged Ts65Dn mice, diet 375 ppm, vs Ts65Dn on standard diet
Description: as §1, §2, §3, §5
Glial fibrillary acidic protein (GFAP) as astrocyte marker in hippocampus;

[3] = test system: Vesicular GABA transporter (VGAT); experiment: VGAT immunostaining in hippocampus; settings: CA1/2 hippocampus, Ts65Dn mice, after 15 months of treatment
Description: as §1, §2, §3, §5
Vesicular GABA transporter (VGAT), as marker of GABAergic synapses in hippocampus;
as §6

Aβ40 and Aβ42 [4] = experiment: Plasma Aβ40 and Aβ42 by ELISA
Description: as §1, §2, §3, §4
FIGS. 6 A and B illustrates the plasma levels of Aβ40 and Aβ42 peptides in animals after 15 months of treatment (19 months of age). There was a substantial increase in Aβ40 and Aβ42 plasma levels in Ts65Dn mice compared to wild-type animals.

[5] = test system: Ionized calcium binding adaptor molecule 1 (Iba1); experiment: Activated microglia, Iba1 immunoreactivity in hippocampus; settings: CA1/2 hippocampus, aged Ts65Dn mice, diet 375 ppm, vs Ts65Dn on standard diet
Description: as §1, §2, §3, §5
Ionized calcium binding adaptor molecule 1 (Iba1), as microglia marker in hippocampus;

[6] = test system: total APP/Aβ40/Aβ42 peptides; experiment: Intraneuronal APP immunohistochemistry and microdensitometry in cerebral cortex; settings: Ts65Dn mice treated vs control transgenic animals
Description: Intraneuronal APP was measured by immunohistochemistry and computerized microdensitometry (Chemicon clone 22C11) in cerebral cortex;

Ts65Dn mice [7] = experiment: Y-maze test, spatial learning and memory
Description: as §1, §2, §3
(§7) Animals were provided by Jackson Laboratory, Bar Harbor, Me., USA) in small cohorts. Ts65Dn segmental male trisomic mice were used. Ts65Dn mice were compared with diploid controls from the same litters.
Spatial learning and memory were assessed with the Y-maze test according to Stewart S et al., J Alzheimer Dis 2011; 26: 105-126, which is incorporated herein by reference in its entirety.
Animals were tested in a single trial Y maze task, to measure arm entries (A) and alternation (B). The percentage of spontaneous alternations is defined as (total alternations/total arm entries-2)×100.

[8] = test system: Amyloid precursor protein intracellular domain (AICD); experiment: AICD immunoreactivity in CA1/2 hippocampal neurons; settings: CA1/2 hippocampal regions, Ts65Dn mice, p<0.0001
Description: Amyloid precursor protein intracellular domain (AICD) (cleavage sites C83 and C99) in hippocampus.
Quantification was carried out by counting the percentage of neurons having AICD-positivity.

APP mRNA = APP mRNA expression by real-time PCR in hippocampus and basal ganglia; settings: wild-type animals, medicated diet for 15 months
Description: Molecular biology markers were measured in hippocampus and basal ganglia by real-time PCR, according to Massella A et al., BMC Neuroscience 2012; 13: 12; and D'Intino G et al., J Neuroendocrinol 2011; 23: 778-790, both of which are incorporated herein by reference in their entireties.

Ts65Dn mice [9] = experiment: CatWalk computerized gait analysis, locomotion
Description: as §1, §2, §3, §7
Locomotion deficits were assessed with the CatWalk technology (gait analysis) according to Faizi M et al., Neurobiol Dis 2011; 43: 397-413, which is incorporated herein by reference in its entirety.
The print area of front and hind paws is presented, as corrected according to the individual animal body weight. […] CHF 5074 treatment normalized this gait parameter.

[10] = wild-type and Ts65Dn mice, after 15 months of treatment (19 months of age)

## O=C(O)C1(c2ccc(-c3ccc(Cl)c(Cl)c3)c(F)c2)CC1 [CHF 5074, 1-(3′,4′-dichloro-2-fluorobiphenyl-4-yl)cyclopropanecarboxylic acid]
Aβ40 and Aβ42 [1]
  brain Aβ40 levels: did not modify significantly
  brain Aβ42 levels: did not modify significantly
Synaptophysin
  synaptophysin levels: no significant differences
[2]
  GFAP-immunoreactivity (reactive astrocytes): substantial reduction
[3]
  increase of immunostaining for the GABA transporter VGAT: completely reversed
Aβ40 and Aβ42 [4]; [10]
  plasma level of Aβ40: further increased
  plasma level of Aβ42: further increased
Aβ40 and Aβ42 [4]; wild-type animals, after 15 months of treatment
  significance of the increase in plasma Aβ42: significant
[5]
  Iba1-immunoreactivity (activated microglia): substantial reduction
[6]
  intracellular immunoreactivity of total APP/Aβ40/Aβ42 peptides in cortical neurons: significant decrease
Ts65Dn mice [7]; CHF 5074 in diet 375 ppm (approx. 60 mg/kg/day), tested after 6, 9 and 15 months of treatment
  spontaneous alternation in Y maze (spatial memory): progressively normalized
Ts65Dn mice [7]; diet 375 ppm, after 15 months of treatment
  spontaneous alternation in Y maze compared to wild-type mice: not significantly different
Ts65Dn mice [7]; prolonged oral treatment
  spatial memory deficit (study summary): attenuated
[8]
  increase in percentage of AICD-positive neurons: significantly attenuated
APP mRNA
  APP mRNA levels: slightly but significantly increased
Ts65Dn mice [9]; diet 375 ppm, after 15 months of treatment (19 months of age)
  hind paw print area (gait parameter, corrected for body weight): normalized
Ts65Dn mice [9]; prolonged oral treatment
  locomotion deficit (study summary): completely reversed
